The compounds below were run on LAMSS (assay: Pre-emergent Test III, preemergent activity in wheat and barley). Details: 35 g ai/ha.
Assay type: in vivo
Experimental: (§1) Pre-emergent Test III. Seeds of test species were planted into square plastic pots (10 cm wide) containing sandy loam soil. After planting, all pots were sub-irrigated 16 h prior to compound application. A weighed amount, determined by the highest rate to be tested, of each test compound was placed in a 25 mL glass vial and was dissolved in 4 mL of a 97:3 v/v mixture of acetone and DMSO to obtain concentrated stock solutions. […] The concentrated stock solutions obtained were diluted with 20 mL of an aqueous mixture containing water and 0.02% w/v (weight/volume) of Triton X-155 to obtain spray solutions containing the highest application rates. Additional application rates were obtained by serial dilution of 12 mL of the high rate solution into a solution containing 2 mL of 97:3 v/v mixture of acetone and DMSO and 10 mL of an aqueous mixture containing water and 0.02% w/v (weight/volume) of Triton X-155 to obtain 1⁄2×, 1⁄4×, 1⁄8× and 1/16× rates of the high rate. Compound requirements are based upon a 12 mL application volume at a rate of 187 liters per hectare (L/ha). Formulated compounds were applied to the soil surface with an overhead Mandel track sprayer equipped with […] nozzles calibrated to deliver 187 L/ha over an application area of 0.503 square meters. Control pots were sprayed in the same manner with the solvent blank. The treated pots and control pots were placed in a greenhouse as described above and watered through surface irrigation. After 21 d, the condition of the test pots as compared with that of the untreated pots was determined visually and scored on a scale of 0 to 100 percent where 0 corresponds to no herbicidal effect and 100 corresponds to plant death or lack of emergence from the soil. By applying the well-accepted probit analysis as described by J. Berkson in Journal of the American Statistical Society, 48, 565 (1953) and by D. Finney in “Probit Analysis” Cambridge University Press (1952), the above data can be used to calculate GR20, GR50, GR80 and GR90 values, which are defined as growth reduction factors that correspond to the effective dose of herbicide required to kill or control 20 percent, 50 percent, 80 percent or 90 percent, respectively, of a target plant.

SMILES | Visual Growth Reduction (%) 21 Days After Application, LAMSS
Nc1c(F)c(-c2ccc(Br)c(F)c2F)nc(C(=O)O)c1Cl [Compound 147] | A (95-100)
C=Cc1c(C(=O)O)nc(-c2ccc(Cl)c(F)c2)c(F)c1N [Compound 214] | A (95-100)

Same assay, conditions: 70 g ai/ha

SMILES | Visual Growth Reduction (%) 21 Days After Application, LAMSS
Nc1c(F)c(-c2ccc(Br)c(F)c2F)nc(C(=O)O)c1Cl [Compound 147] | A (95-100)
C=Cc1c(C(=O)O)nc(-c2ccc(Cl)c(F)c2)c(F)c1N [Compound 214] | A (95-100)

Same assay, conditions: 21 days after application, dose to kill or control 50%, probit analysis

SMILES | GR50 LAMSS
Nc1c(F)c(-c2ccc(Br)c(F)c2F)nc(C(=O)O)c1Cl [Compound 147] | 1 g ai/ha
C=Cc1c(C(=O)O)nc(-c2ccc(Cl)c(F)c2)c(F)c1N [Compound 214] | 1 g ai/ha

Same assay, conditions: 21 days after application, dose to kill or control 80%, probit analysis

SMILES | GR80 LAMSS
Nc1c(F)c(-c2ccc(Br)c(F)c2F)nc(C(=O)O)c1Cl [Compound 147] | 5 g ai/ha
C=Cc1c(C(=O)O)nc(-c2ccc(Cl)c(F)c2)c(F)c1N [Compound 214] | 2 g ai/ha

These compounds were tested on TRZSS in the same assay as above. Details: 35 g ai/ha.
Assay type: in vivo, Triticum aestivum
Experimental: as §1

SMILES | Visual Growth Reduction (%) 21 Days After Application, TRZSS
Nc1c(F)c(-c2ccc(Br)c(F)c2F)nc(C(=O)O)c1Cl [Compound 147] | F (30-44)
C=Cc1c(C(=O)O)nc(-c2ccc(Cl)c(F)c2)c(F)c1N [Compound 214] | G (0-29)

Same assay, conditions: 70 g ai/ha

SMILES | Visual Growth Reduction (%) 21 Days After Application, TRZSS
Nc1c(F)c(-c2ccc(Br)c(F)c2F)nc(C(=O)O)c1Cl [Compound 147] | F (30-44)
C=Cc1c(C(=O)O)nc(-c2ccc(Cl)c(F)c2)c(F)c1N [Compound 214] | F (30-44)

Same assay, conditions: 21 days after application, dose to kill or control 20%, probit analysis

SMILES | GR20 TRZSS
Nc1c(F)c(-c2ccc(Br)c(F)c2F)nc(C(=O)O)c1Cl [Compound 147] | 23 g ai/ha
C=Cc1c(C(=O)O)nc(-c2ccc(Cl)c(F)c2)c(F)c1N [Compound 214] | 28 g ai/ha

These compounds were tested on APESV in the same assay as above. Details: 35 g ai/ha.
Assay type: in vivo, Apera spica-venti
Experimental: as §1

SMILES | Visual Growth Reduction (%) 21 Days After Application, APESV
Nc1c(F)c(-c2ccc(Br)c(F)c2F)nc(C(=O)O)c1Cl [Compound 147] | C (75-84)
C=Cc1c(C(=O)O)nc(-c2ccc(Cl)c(F)c2)c(F)c1N [Compound 214] | C (75-84)

Same assay, conditions: 70 g ai/ha

SMILES | Visual Growth Reduction (%) 21 Days After Application, APESV
Nc1c(F)c(-c2ccc(Br)c(F)c2F)nc(C(=O)O)c1Cl [Compound 147] | B (85-94)
C=Cc1c(C(=O)O)nc(-c2ccc(Cl)c(F)c2)c(F)c1N [Compound 214] | A (95-100)

Same assay, conditions: 21 days after application, dose to kill or control 50%, probit analysis

SMILES | GR50 APESV
Nc1c(F)c(-c2ccc(Br)c(F)c2F)nc(C(=O)O)c1Cl [Compound 147] | 19 g ai/ha
C=Cc1c(C(=O)O)nc(-c2ccc(Cl)c(F)c2)c(F)c1N [Compound 214] | 13 g ai/ha

Same assay, conditions: 21 days after application, dose to kill or control 80%, probit analysis

SMILES | GR80 APESV
Nc1c(F)c(-c2ccc(Br)c(F)c2F)nc(C(=O)O)c1Cl [Compound 147] | 33 g ai/ha
C=Cc1c(C(=O)O)nc(-c2ccc(Cl)c(F)c2)c(F)c1N [Compound 214] | 28 g ai/ha

The compounds below were run on LOLSS in the same assay as above. Details: 35 g ai/ha.
Assay type: in vivo, Lolium multiflorum, Lolium rigidum
Experimental: as §1

SMILES | Visual Growth Reduction (%) 21 Days After Application, LOLSS
Nc1c(F)c(-c2ccc(Br)c(F)c2F)nc(C(=O)O)c1Cl [Compound 147] | G (0-29)
C=Cc1c(C(=O)O)nc(-c2ccc(Cl)c(F)c2)c(F)c1N [Compound 214] | G (0-29)

Same assay, conditions: 70 g ai/ha

SMILES | Visual Growth Reduction (%) 21 Days After Application, LOLSS
Nc1c(F)c(-c2ccc(Br)c(F)c2F)nc(C(=O)O)c1Cl [Compound 147] | G (0-29)
C=Cc1c(C(=O)O)nc(-c2ccc(Cl)c(F)c2)c(F)c1N [Compound 214] | E (45-59)

Same assay, conditions: 21 days after application, dose to kill or control 50%, probit analysis

SMILES | GR50 LOLSS
Nc1c(F)c(-c2ccc(Br)c(F)c2F)nc(C(=O)O)c1Cl [Compound 147] | 52 g ai/ha
C=Cc1c(C(=O)O)nc(-c2ccc(Cl)c(F)c2)c(F)c1N [Compound 214] | >70 g ai/ha

Same assay, conditions: 21 days after application, dose to kill or control 80%, probit analysis

SMILES | GR80 LOLSS
Nc1c(F)c(-c2ccc(Br)c(F)c2F)nc(C(=O)O)c1Cl [Compound 147] | >70 g ai/ha
C=Cc1c(C(=O)O)nc(-c2ccc(Cl)c(F)c2)c(F)c1N [Compound 214] | >70 g ai/ha

Each compound was assayed on HORSS in the same assay as above. Details: 35 g ai/ha.
Assay type: in vivo, Hordeum vulgare
Experimental: as §1

SMILES | Visual Growth Reduction (%) 21 Days After Application, HORSS
Nc1c(F)c(-c2ccc(Br)c(F)c2F)nc(C(=O)O)c1Cl [Compound 147] | G (0-29)
C=Cc1c(C(=O)O)nc(-c2ccc(Cl)c(F)c2)c(F)c1N [Compound 214] | G (0-29)

Same assay, conditions: 70 g ai/ha

SMILES | Visual Growth Reduction (%) 21 Days After Application, HORSS
Nc1c(F)c(-c2ccc(Br)c(F)c2F)nc(C(=O)O)c1Cl [Compound 147] | G (0-29)
C=Cc1c(C(=O)O)nc(-c2ccc(Cl)c(F)c2)c(F)c1N [Compound 214] | G (0-29)

Same assay, conditions: 21 days after application, dose to kill or control 20%, probit analysis

SMILES | GR20 HORSS
Nc1c(F)c(-c2ccc(Br)c(F)c2F)nc(C(=O)O)c1Cl [Compound 147] | 70 g ai/ha
C=Cc1c(C(=O)O)nc(-c2ccc(Cl)c(F)c2)c(F)c1N [Compound 214] | 93 g ai/ha

Each compound was assayed on SETVI in the same assay as above. Details: 35 g ai/ha.
Assay type: in vivo, Setaria viridis
Experimental: as §1

SMILES | Visual Growth Reduction (%) 21 Days After Application, SETVI
Nc1c(F)c(-c2ccc(Br)c(F)c2F)nc(C(=O)O)c1Cl [Compound 147] | E (45-59)
C=Cc1c(C(=O)O)nc(-c2ccc(Cl)c(F)c2)c(F)c1N [Compound 214] | G (0-29)

Same assay, conditions: 70 g ai/ha

SMILES | Visual Growth Reduction (%) 21 Days After Application, SETVI
Nc1c(F)c(-c2ccc(Br)c(F)c2F)nc(C(=O)O)c1Cl [Compound 147] | C (75-84)
C=Cc1c(C(=O)O)nc(-c2ccc(Cl)c(F)c2)c(F)c1N [Compound 214] | G (0-29)

Same assay, conditions: 21 days after application, dose to kill or control 50%, probit analysis

SMILES | GR50 SETVI
Nc1c(F)c(-c2ccc(Br)c(F)c2F)nc(C(=O)O)c1Cl [Compound 147] | 17 g ai/ha
C=Cc1c(C(=O)O)nc(-c2ccc(Cl)c(F)c2)c(F)c1N [Compound 214] | >70 g ai/ha

Same assay, conditions: 21 days after application, dose to kill or control 80%, probit analysis

SMILES | GR80 SETVI
Nc1c(F)c(-c2ccc(Br)c(F)c2F)nc(C(=O)O)c1Cl [Compound 147] | >70 g ai/ha
C=Cc1c(C(=O)O)nc(-c2ccc(Cl)c(F)c2)c(F)c1N [Compound 214] | >70 g ai/ha

Source: patent US9113629B2, “4-amino-6-(4-substituted-phenyl)-picolinates and 6-amino-2-(4-substituted-phenyl)-pyrimidine-4-carboxylates and their use as herbicides” (DOW AGROSCIENCES LLC, priority 2013, dated 2015)
